pIC50: −log10 of the molar value. Where two headings read alike, the source gives them in different places.
Biological target: T1, Human DGAT1 (Homo sapiens, UniProt O75907)
T1 construct: my translation of the primer: M-G-DYKDDDD-GDRGSSRRR) (N); made in house; host or cells: Sf9 insect cells (recombinant baculovirus BAC-DGAT1, pFASTBAC1); microsome fraction
T1 sequence (O75907 1-488): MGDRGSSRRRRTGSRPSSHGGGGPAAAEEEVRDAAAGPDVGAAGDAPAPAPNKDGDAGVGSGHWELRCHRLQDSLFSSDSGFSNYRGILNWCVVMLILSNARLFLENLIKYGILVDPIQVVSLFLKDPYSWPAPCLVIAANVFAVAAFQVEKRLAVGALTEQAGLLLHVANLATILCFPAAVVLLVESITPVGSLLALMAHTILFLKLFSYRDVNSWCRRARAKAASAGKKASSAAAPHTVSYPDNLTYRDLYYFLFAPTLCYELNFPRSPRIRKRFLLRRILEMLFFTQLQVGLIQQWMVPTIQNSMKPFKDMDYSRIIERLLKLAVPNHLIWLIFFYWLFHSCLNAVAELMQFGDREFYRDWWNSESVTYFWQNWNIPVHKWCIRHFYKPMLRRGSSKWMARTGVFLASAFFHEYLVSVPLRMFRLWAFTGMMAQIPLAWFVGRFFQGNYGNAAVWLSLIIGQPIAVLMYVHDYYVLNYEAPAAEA
Experiment: DGAT inhibitory activity: [14C]-triglyceride synthesis by DGAT1 high expression Sf9 microsome
Assay type: biochemical
Settings: 25 μM [14C]-Oleoyl-CoA, 32° C., 15 min, read-out: DGAT inhibitory activity (according to IC50)
Method: The primer base sequence is shown below.
The PCR reaction was conducted using a KOD-plus kit (TOYOBO). The obtained PCR product was electrophoresed on agarose gel (1%), the DNA fragment amplified by PCR was recovered from the gel, and then digested with restriction enzymes EcoRI and SpeI. […] Furthermore, using BAC-TO-BAC Baculovirus Expression System (Invitrogen), recombinant baculovirus BAC-DGAT1 was prepared.
SF9 cells were sown at 1×10^6 cells/ml on Sf-900II SEM medium (1 L, Invitrogen) containing 10% fetal calf serum (Trace), 50 mg/L gentamicin (Invitrogen) and 0.1% Pluronic F-68 (Invitrogen), and shaking culture was performed using a 2 L volume Erlenmeyer at 27° C., 100 rpm. After culturing for 24 hr, recombinant baculovirus BAC-DGAT1 (6.7 mL) was added, and the mixture was further cultured for 3 days. The culture medium was centrifuged at 2,000 rpm for 5 min to give virus-infected cells. The infected cells were washed with a phosphate buffered saline (Invitrogen), centrifuged under the same conditions, and the cells were preserved at −80° C. The cryopreserved cells were thawed in ice, suspended in buffer A (50 mM Tris buffer (30 mL, pH 7.4) containing 20% glycerol, 0.15 M NaCl) supplemented with Complete Protease Inhibitor (Boehringer), and ruptured 3 times with a Polytron homogenizer (Kinematica) at 20,000 rpm for 30 sec. The Sf9 microsome fractions were obtained by a conventional method and cryopreserved at −80° C. as a DGAT1 high expression Sf9 microsome.
As a DGAT1 reaction buffer, a solution having a composition of 100 mM Tris-HCl (pH 7.5), 250 mM sucrose, 150 mM MgCl2, 0.01% bovine serum albumin (BSA) was used. […] A mixture of 300 μL of chloroform:methanol (=1:2) was added to the reaction mixture to quench the reaction. The reaction mixture was sufficiently mixed and saline (200 μL) was added to partition the mixture between a chloroform layer (lower layer) and an aqueous layer (upper layer). The chloroform layer (50 μL) was spotted on a thin layer chromatography silica gel plate (TLC plate, Merck) and developed with a solvent (n-hexane:diethyl ether:ethyl acetate:acetic acid=74:15:15:1). The developed TLC plate was dried, contacted with a BAS imaging plate (manufactured by FUJIFILM) and measured with BAS2500 (manufactured by FUJIFILM) 16 hr later to numerically show the amount of [^14C]-triglyceride (TG amount) produced during the reaction. The inhibitory rate was calculated by the following formula:
Inhibitory rate (%)=(1−(TG amount in the case with addition of test compound−blank TG amount)/(control TG amount−blank TG amount))×100
The count of the triglyceride produced in the solution reacted without addition of the test compound was used as a “control TG amount”, and the count of the triglyceride produced in the solution reacted without addition of the test compound and DGAT1 high expression Sf9 microsome was used as a “blank TG amount”.

[1] = Table 2, 25 μM dioleoylglycerol
[2] = Table 1, 25 μM dioleoylglycerol

Row | pIC50 [1] | pIC50 [2] | SMILES
1 | 5.00 to 6.30 |  | CCOc1ccc(C(=O)CCC(=O)Nc2cc(-c3ccccc3Cl)nn2-c2ccc(C)cc2)cc1OCC [Example 101, N-[3-(2-chlorophenyl)-1-(4-methylphenyl)-1H-pyrazol-5-yl]-4-(3,4-diethoxyphenyl)-4-oxobutanamide]
2 | 7.30 to 8.00 |  | CCOc1ccc(C(=O)CCC(=O)Nc2cc(-c3ccc(C)cc3)c3cc(Br)ccc3n2)cc1OCC [Example 76, N-[6-bromo-4-(4-methylphenyl)quinolin-2-yl]-4-(3,4-diethoxyphenyl)-4-oxobutanamide]
3 | 6.30 to 7.30 |  | CCOc1ccc(C(=O)CCC(=O)Nc2cc(-c3cccc(CCC(=O)OC)c3)cc(-c3ccccc3)n2)cc1OCC [Example 142, methyl 3-[3-(2-{[4-(3,4-diethoxyphenyl)-4-oxobutanoyl]amino}-6-phenylpyridin-4-yl)phenyl]propanoate]
4 |  | 6.30 to 7.30 | O=C(CCC(=O)c1ccc(O)cc1)Nc1nc(-c2ccccc2)c(Cc2ccccc2)s1 [Example 33, N-(5-benzyl-4-phenyl-1,3-thiazol-2-yl)-4-(4-hydroxyphenyl)-4-oxobutanamide]
5 |  | 6.30 to 7.30 | CCOc1ccc(C(=O)CCC(=O)Nc2nc(-c3ccccc3)c(Cc3ccccc3)s2)cc1/C=C/C(=O)O [Example 31, (2E)-3-(5-{4-[(5-benzyl-4-phenyl-1,3-thiazol-2-yl)amino]-4-oxobutanoyl}-2-ethoxyphenyl)acrylic acid]
6 | 6.30 to 7.30 |  | O=C(CCC(=O)c1ccc2c(c1)OCCO2)Nc1nc(-c2ccccc2)c(Cc2ccccc2)s1 [Example 67, N-(5-benzyl-4-phenyl-1,3-thiazol-2-yl)-4-(2,3-dihydro-1,4-benzodioxin-6-yl)-4-oxobutanamide]
7 | 6.30 to 7.30 |  | O=C(CCC(=O)c1ccc2c(c1)CCO2)Nc1cc(-c2cccc(OC(F)(F)F)c2)cc(-c2ccccc2)n1 [Example 175, 4-(2,3-dihydro-1-benzofuran-5-yl)-4-oxo-N-{6-phenyl-4-[3-(trifluoromethoxy)phenyl]pyridin-2-yl}butanamide]
8 | 6.30 to 7.30 |  | CCOc1ccc(C(=O)CCC(=O)Nc2cc(-c3ccoc3)cc(-c3ccccc3)n2)cc1OCC [Example 117, 4-(3,4-diethoxyphenyl)-N-[4-(3-furyl)-6-phenylpyridin-2-yl]-4-oxobutanamide]
9 | 7.30 to 8.00 |  | COc1cc(-c2cc(NC(=O)CCC(=O)c3ccc4c(c3)CCO4)nc(-c3ccccc3)c2)ccc1O [Example 181, 4-(2,3-dihydro-1-benzofuran-5-yl)-N-[4-(4-hydroxy-3-methoxyphenyl)-6-phenylpyridin-2-yl]-4-oxobutanamide]
10 |  | 6.30 to 7.30 | CCOc1ccc(C(=O)NCCNC(=O)c2cc(-c3ccccc3)n(-c3ccc(OC(F)(F)F)cc3)c2C)cc1 [Example 62, N-{2-[(4-ethoxybenzoyl)amino]ethyl}-2-methyl-5-phenyl-1-[4-(trifluoromethoxy)phenyl]-1H-pyrrole-3-carboxamide]
11 | 6.30 to 7.30 |  | CCOc1ccc(C(=O)CCC(=O)Nc2cc(-c3ccc(C#N)cc3)cc(-c3ccccc3)n2)cc1OCC [Example 122, N-[4-(4-cyanophenyl)-6-phenylpyridin-2-yl]-4-(3,4-diethoxyphenyl)-4-oxobutanamide]
12 | 6.30 to 7.30 |  | O=C(CCC(=O)c1ccc2c(c1)CCO2)Nc1cc(-c2cccc(CCCO)c2)cc(-c2ccccc2)n1 [Example 168, 4-(2,3-dihydro-1-benzofuran-5-yl)-N-{4-[3-(3-hydroxypropyl)phenyl]-6-phenylpyridin-2-yl}-4-oxobutanamide]
13 | 6.30 to 7.30 |  | CCOc1ccc(C(=O)CCC(=O)Nc2cc(-c3cnn(C)c3)cc(-c3ccccc3)n2)cc1OCC [Example 119, 4-(3,4-diethoxyphenyl)-N-[4-(1-methyl-1H-pyrazol-4-yl)-6-phenylpyridin-2-yl]-4-oxobutanamide]
14 | 6.30 to 7.30 |  | O=C(CCC(=O)c1ccc2c(c1)CCCC2)Nc1cc(-c2ccccc2)c2cc(Cl)ccc2n1 [Example 75, N-(6-chloro-4-phenylquinolin-2-yl)-4-oxo-4-(5,6,7,8-tetrahydronaphthalen-2-yl)butanamide]
15 | 5.00 to 6.30 |  | CCOc1ccc(C(=O)CCC(=O)Nc2cc(-c3ccc(N4CCOCC4)cc3)cc(-c3ccccc3)n2)cc1OCC [Example 129, 4-(3,4-diethoxyphenyl)-N-[4-(4-(morpholin-4-yl)phenyl)-6-phenylpyridin-2-yl]-4-oxobutanamide]
16 | 6.30 to 7.30 |  | CCOc1ccc(C(=O)CCC(=O)Nc2cc(-c3ccccc3)c3ccc(Br)cc3n2)cc1OCC [Example 81, N-(7-bromo-4-phenylquinolin-2-yl)-4-(3,4-diethoxyphenyl)-4-oxobutanamide]
17 | 7.30 to 8.00 |  | O=C(CCC(=O)c1ccc2c(c1)CCO2)Nc1cc(-c2cccc(O)c2)cc(-c2ccccc2)n1 [Example 165, 4-(2,3-dihydro-1-benzofuran-5-yl)-N-[4-(3-hydroxyphenyl)-6-phenylpyridin-2-yl]-4-oxobutanamide]
18 | 5.00 to 6.30 |  | CCOc1ccc(C(=O)CCC(=O)Nc2sc(-c3ccccc3)nc2-c2ccccc2)cc1 [Example 66, 4-(4-ethoxyphenyl)-N-(2,4-diphenyl-1,3-thiazol-5-yl)-4-oxobutanamide]
19 |  | 7.30 to 8.00 | CCOc1ccc(C(=O)CCC(=O)Nc2cc(-c3ccccc3)c(Cc3ccccc3)s2)cc1OCC [Example 17, N-(5-benzyl-4-phenyl-2-thienyl)-4-(3,4-diethoxyphenyl)-4-oxobutanamide]
20 |  | 5.00 to 6.30 | CCOc1ccc(C(=O)CCC(=O)Nc2cc(-c3ccccc3)nc(-c3ccccc3)c2)cc1OCC [Example 12, 4-(3,4-diethoxyphenyl)-N-(2,6-diphenylpyridin-4-yl)-4-oxobutanamide]
21 |  | 5.00 to 6.30 | CCOc1ccc(C(=O)CCC(=O)Nc2ccc(CCC(=O)O)c(-c3ccccc3)c2)cc1OCC [Example 10, 3-(5-{[4-(3,4-diethoxyphenyl)-4-oxobutanoyl]amino}biphenyl-2-yl)propanoic acid]
22 |  | ≥ 8.00 | CCOc1ccc(C(=O)CCC(=O)Nc2nc(-c3ccccc3)c(Cc3ccccc3)s2)cc1 [Example 1, N-(5-benzyl-4-phenyl-1,3-thiazol-2-yl)-4-(4-ethoxyphenyl)-4-oxobutanamide]
23 | ≥ 8.00 |  | CCOc1ccc(C(=O)CCC(=O)Nc2cc(-c3ccccc3OC)cc(-c3ccccc3)n2)cc1OCC [Example 146, 4-(3,4-diethoxyphenyl)-N-[4-(2-methoxyphenyl)-6-phenylpyridin-2-yl]-4-oxobutanamide]
24 | 6.30 to 7.30 |  | CCOc1ccc(C(=O)CCC(=O)Nc2cc(-c3ccc(OCCCN(C)C)cc3)c3ccccc3n2)cc1OCC [Example 93, 4-(3,4-diethoxyphenyl)-N-(4-{4-[3-(dimethylamino)propoxy]phenyl}quinolin-2-yl)-4-oxobutanamide]
25 | 5.00 to 6.30 |  | CCOc1ccc(C(=O)CCC(=O)Nc2cn(Cc3ccccc3)nc2-c2ccccc2)cc1 [Example 109, N-(1-benzyl-3-phenyl-1H-pyrazol-4-yl)-4-(4-ethoxyphenyl)-4-oxobutanamide]
26 |  | 7.30 to 8.00 | CCCc1cc(C(=O)CCC(=O)Nc2nc(-c3ccccc3)c(Cc3ccccc3)s2)ccc1OCC [Example 24, N-(5-benzyl-4-phenyl-1,3-thiazol-2-yl)-4-(4-ethoxy-3-propylphenyl)-4-oxobutanamide]

— US20090048258A1, “Amide Compound” (priority 2005, published 2009)
